# In patent US20260365670A1, “EGFR INHIBITORS AND USES THEREOF” (DIZAL (JIANGSU) PHARMACEUTICAL CO., LTD., priority 2022, published 2026):
# pIC50: −log10 of the molar value. Like-named read-outs stand apart in the source and are kept apart here.
# Columns and labels:
# [1] = target: T1, EGFR[T790M/C797S/L858R] (Homo sapiens, UniProt P00533, C797S/L858R/T790M); test: Inhibition of EGFR[T790M/C797S/L858R] biochemical enzymatic activity (HTRF); conditions: 1 mM ATP; for IC50: EGFR T790M-C797S-L858R, 1 h, room temperature, read-out: IC50 (nM) @T790M- C797S - L858R
# T1 construct: purchased Carna Bio
# Method: (§1) Biological Example 1: Inhibition of EGFR WT and Mutant Biochemical Enzymatic Activity
# (§2) The inhibition potency of compounds against these enzymes was assessed using Homogenous Time Resolved Fluorescence approach (HTRF, CisBio. Cat No. 62TKOPEJ).
# (§3) Inhibitory effects of the compounds were determined by measuring the enzymatic activity of EGFR enzyme phosphorylates 1 μM TK Substrate-biotin in the presence of 1 mM adenosine-5′-triphosphate (ATP) and varying concentrations of the test compound. The enzyme reaction buffer contains 5 mM MgCl2, 1 mM MnC12, 0.01% CHAPS, 1 mM dithiothreitol (DTT), 0.5% dimethylsulfoxide (DMSO), and 1× supplemented enzymatic buffer. The WT and mutant EGFR enzymes (SignalChem) were added to plates containing inhibitors, followed by activation of the kinase reaction by addition of ATP and peptide substrates. After incubation for 1 h at room temperature, the reaction was stopped by the addition of the detection reagent mix containing EDTA. The fluorescence was measured at 615 nm and 665 nm, respectively with excitation wavelength at 320 nm. The calculated signal ratio of 665 nm/615 nm is proportional to the kinase activity. The concentration of compound producing 50% inhibition of the respective kinase (IC50) was calculated using four-parameter logistic fit with XL-FIT.
# [2] = target: T2, EGFR (C797S L858R) (Homo sapiens, UniProt P00533, C797S/L858R); test: Inhibition of EGFR (C797S L858R) biochemical enzymatic activity (HTRF); conditions: 1 mM ATP; for IC50: EGFR L858-C797S, 1 h, room temperature, read-out: IC50 (nM) @L858-C797S
# T2 construct: purchased signalchem
# Method: as §1, §2, §3
# [3] = target: T3, EGFR Exon19Del/T790M (Homo sapiens, UniProt P00533, DEL746-750/T790M); test: Inhibition of EGFR Exon19Del/T790M biochemical enzymatic activity (HTRF); conditions: 1 mM ATP; for IC50: EGFR Del19-T790M, 1 h, room temperature, read-out: IC50 (nM) @Del19-T790M
# T3 construct: purchased Carna Bio
# Method: as §1, §2, §3
# [4] = target: T4, EGFR L858R/T790M (Homo sapiens, UniProt P00533, L858R/T790M); test: Inhibition of EGFR L858R/T790M biochemical enzymatic activity (HTRF); conditions: 1 mM ATP; for IC50: EGFR L858R-T790M, 1 h, room temperature, read-out: IC50 (nM) @L858R-T790M
# T4 construct: purchased Carna Bio
# Method: as §1, §2, §3
# [5] = system: PC-9; test: Cell proliferation assay, PC-9 cells (CellTiter-Glo, 72 hours); format: cell-based; conditions: PC9 cells
# Outline: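 Ba/F3 cells (5000/well) and PC-9 cells (500/well, RPMI1640 with 10% FBS) were plated overnight and then dosed with a compound concentration series. Viable cells were read at day 0 (G0) and after treatment (G3). GI50 came from curve fits of G0-corrected proliferation relative to DMSO.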
# [6] = target: T5, EGFR L858R (Homo sapiens, UniProt P00533, L858R); test: Inhibition of EGFR L858R biochemical enzymatic activity (HTRF); conditions: 1 mM ATP; for IC50: 1 h, room temperature, read-out: IC50 (nM) @L858R
# T5 construct: purchased Carna Bio
# Method: as §1, §2, §3
# [7] = system: Ba/F3 cells expressing EGFR mutations; test: Cell proliferation assay, Ba/F3 cells expressing EGFR mutations (CellTiter-Glo, 72 hours); format: cell-based
# Method: Biological Example 2: Cell Proliferation Assays
# Ba/F3 cells expressing EGFR mutations were seeded in 384-well plates at 5000 cells/well in RPMI1640 medium containing […]. PC-9 at 500 cells/well was seeded into 384-well plates in RPMI1640 medium with 10% FBS. After overnight incubation, the assay plates were dosed with compounds at a series of concentrations. Alongside dosing the assay plates, the day 0 plate was processed using CellTiter-Glo® Luminescent Cell Viability Assay (Promega) to measure the number of viable cells (G0). The assay plates were further incubated for 72 hours and the number of viable cells (G3) was measured. The percentage of proliferation was calculated as: […]=100×(G3 value of sample well−G0 value)/(G3 value of DMSO control−G0 value). The concentration of compound producing 50% proliferation inhibition (GI50) was further calculated in best-fit curves using XLFit software. N/A=not available.
# [8] = target: T6, EGFR[T790M/C797S/d746-750] (Homo sapiens, UniProt P00533, C797S/DEL746-750/T790M); test: Inhibition of EGFR[T790M/C797S/d746-750] biochemical enzymatic activity (HTRF); conditions: for IC50: EGFR T790M-C797S-Del19, 1 mM ATP, 1 h, room temperature, read-out: IC50 (nM) @T790M - C797S - Del19
# T6 construct: purchased Carna Bio
# Method: as §1, §2, §3
# [9] = target: T7, EGFR Exon19Del (Homo sapiens, UniProt P00533, DEL746-750); test: Inhibition of EGFR Exon19Del biochemical enzymatic activity (HTRF); conditions: read-out: IC50 @Del19
# T7 construct: purchased Carna Bio
# Method: as §1, §2, §3
# [10] = target: T8, EGFR wild type (Homo sapiens, UniProt P00533); test: Inhibition of EGFR wild type biochemical enzymatic activity (HTRF); conditions: 1 mM ATP; for IC50: EGFR WT, 1 h, room temperature, read-out: IC50 (nM) @WT
# T8 construct: purchased Carna Bio
# Method: as §1, §2, §3
# [11] = target: T9, EGFR (d746-750 C797S) (Homo sapiens, UniProt P00533, C797S/DEL746-750); test: Inhibition of EGFR (d746-750 C797S) biochemical enzymatic activity (HTRF); conditions: 1 mM ATP; for IC50: EGFR Del19-C797S, 1 h, room temperature, read-out: IC50 (nM) @Del19-C797S
# T9 construct: purchased signalchem
# Method: as §1, §2, §3
# [12] = EGFR Del19, 1 mM ATP, 1 h, room temperature
# T2 sequence (P00533 25-1210 C797S/L858R): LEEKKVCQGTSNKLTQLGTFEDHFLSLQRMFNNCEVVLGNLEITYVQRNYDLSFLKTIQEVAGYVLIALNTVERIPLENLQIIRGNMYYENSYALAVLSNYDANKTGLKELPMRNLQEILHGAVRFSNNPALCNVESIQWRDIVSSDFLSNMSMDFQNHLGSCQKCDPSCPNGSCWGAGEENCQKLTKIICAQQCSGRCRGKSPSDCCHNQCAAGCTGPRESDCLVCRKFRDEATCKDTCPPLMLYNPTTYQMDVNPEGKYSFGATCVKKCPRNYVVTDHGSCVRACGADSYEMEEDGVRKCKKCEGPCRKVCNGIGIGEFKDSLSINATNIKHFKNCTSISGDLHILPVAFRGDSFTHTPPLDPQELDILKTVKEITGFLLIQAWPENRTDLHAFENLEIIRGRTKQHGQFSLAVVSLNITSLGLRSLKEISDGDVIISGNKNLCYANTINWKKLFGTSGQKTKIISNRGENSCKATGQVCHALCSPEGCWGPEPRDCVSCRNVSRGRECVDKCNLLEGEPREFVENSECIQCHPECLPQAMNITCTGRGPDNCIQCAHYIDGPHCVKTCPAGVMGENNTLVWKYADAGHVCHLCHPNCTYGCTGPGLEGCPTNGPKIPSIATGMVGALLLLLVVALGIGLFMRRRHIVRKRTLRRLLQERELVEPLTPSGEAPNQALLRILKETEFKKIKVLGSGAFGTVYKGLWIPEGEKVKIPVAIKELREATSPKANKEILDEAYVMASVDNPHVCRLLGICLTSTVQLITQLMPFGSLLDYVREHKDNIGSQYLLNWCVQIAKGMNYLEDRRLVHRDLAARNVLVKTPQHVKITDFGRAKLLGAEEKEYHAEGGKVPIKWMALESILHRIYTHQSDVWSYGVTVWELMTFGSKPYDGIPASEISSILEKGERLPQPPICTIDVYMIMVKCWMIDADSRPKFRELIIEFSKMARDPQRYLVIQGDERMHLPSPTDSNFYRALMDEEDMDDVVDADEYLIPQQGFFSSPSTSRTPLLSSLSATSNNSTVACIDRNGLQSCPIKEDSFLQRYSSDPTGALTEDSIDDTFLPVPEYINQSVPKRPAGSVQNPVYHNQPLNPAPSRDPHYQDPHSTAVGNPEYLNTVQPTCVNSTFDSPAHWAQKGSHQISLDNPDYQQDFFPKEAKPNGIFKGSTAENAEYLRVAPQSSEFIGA
# T3 sequence (P00533 with tags, fused parts or gaps DEL746-750/T790M limits assumed): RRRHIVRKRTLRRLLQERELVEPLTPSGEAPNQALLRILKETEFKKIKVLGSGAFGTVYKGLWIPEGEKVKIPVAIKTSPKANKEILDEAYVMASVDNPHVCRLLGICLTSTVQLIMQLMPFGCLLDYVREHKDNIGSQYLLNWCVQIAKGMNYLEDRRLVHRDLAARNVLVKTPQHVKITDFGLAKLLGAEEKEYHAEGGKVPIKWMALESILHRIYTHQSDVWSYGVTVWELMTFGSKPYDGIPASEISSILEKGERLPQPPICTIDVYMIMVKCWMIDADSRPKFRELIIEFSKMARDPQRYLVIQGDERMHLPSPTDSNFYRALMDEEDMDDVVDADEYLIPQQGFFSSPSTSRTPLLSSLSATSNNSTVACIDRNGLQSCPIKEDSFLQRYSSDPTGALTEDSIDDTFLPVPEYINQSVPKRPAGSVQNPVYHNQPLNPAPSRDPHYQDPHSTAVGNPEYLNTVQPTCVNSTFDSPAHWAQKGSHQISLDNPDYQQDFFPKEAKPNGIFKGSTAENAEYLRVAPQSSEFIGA
# T8 sequence (P00533 25-1210): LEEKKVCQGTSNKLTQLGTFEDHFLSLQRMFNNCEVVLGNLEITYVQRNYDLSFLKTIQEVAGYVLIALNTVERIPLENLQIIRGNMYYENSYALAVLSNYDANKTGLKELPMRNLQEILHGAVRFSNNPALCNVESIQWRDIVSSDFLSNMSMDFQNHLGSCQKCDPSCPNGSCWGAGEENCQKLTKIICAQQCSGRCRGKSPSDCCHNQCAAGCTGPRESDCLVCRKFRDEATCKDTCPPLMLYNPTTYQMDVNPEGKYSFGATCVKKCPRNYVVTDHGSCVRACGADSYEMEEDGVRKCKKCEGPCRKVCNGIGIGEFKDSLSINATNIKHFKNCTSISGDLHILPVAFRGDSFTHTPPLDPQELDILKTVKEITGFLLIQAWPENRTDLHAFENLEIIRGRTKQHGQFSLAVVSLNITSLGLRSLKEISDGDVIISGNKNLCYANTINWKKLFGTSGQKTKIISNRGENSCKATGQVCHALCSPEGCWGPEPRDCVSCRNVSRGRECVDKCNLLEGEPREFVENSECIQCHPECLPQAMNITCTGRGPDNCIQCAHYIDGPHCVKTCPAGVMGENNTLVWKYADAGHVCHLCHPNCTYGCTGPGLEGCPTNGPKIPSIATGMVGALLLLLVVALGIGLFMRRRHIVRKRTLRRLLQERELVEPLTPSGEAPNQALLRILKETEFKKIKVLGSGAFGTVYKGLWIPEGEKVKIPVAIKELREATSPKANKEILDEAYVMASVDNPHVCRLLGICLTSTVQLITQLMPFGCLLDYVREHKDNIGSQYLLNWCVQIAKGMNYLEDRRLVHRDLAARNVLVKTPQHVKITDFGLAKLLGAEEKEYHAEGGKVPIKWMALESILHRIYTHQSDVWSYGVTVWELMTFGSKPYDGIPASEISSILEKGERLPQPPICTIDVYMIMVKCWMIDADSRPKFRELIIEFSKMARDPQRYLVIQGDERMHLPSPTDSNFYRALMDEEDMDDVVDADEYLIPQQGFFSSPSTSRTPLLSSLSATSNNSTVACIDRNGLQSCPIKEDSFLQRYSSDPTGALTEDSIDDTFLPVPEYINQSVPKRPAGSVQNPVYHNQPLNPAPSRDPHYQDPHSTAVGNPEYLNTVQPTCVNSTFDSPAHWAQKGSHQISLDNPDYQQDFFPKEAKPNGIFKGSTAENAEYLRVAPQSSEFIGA
# T1 sequence (P00533 25-1210 T790M/C797S/L858R): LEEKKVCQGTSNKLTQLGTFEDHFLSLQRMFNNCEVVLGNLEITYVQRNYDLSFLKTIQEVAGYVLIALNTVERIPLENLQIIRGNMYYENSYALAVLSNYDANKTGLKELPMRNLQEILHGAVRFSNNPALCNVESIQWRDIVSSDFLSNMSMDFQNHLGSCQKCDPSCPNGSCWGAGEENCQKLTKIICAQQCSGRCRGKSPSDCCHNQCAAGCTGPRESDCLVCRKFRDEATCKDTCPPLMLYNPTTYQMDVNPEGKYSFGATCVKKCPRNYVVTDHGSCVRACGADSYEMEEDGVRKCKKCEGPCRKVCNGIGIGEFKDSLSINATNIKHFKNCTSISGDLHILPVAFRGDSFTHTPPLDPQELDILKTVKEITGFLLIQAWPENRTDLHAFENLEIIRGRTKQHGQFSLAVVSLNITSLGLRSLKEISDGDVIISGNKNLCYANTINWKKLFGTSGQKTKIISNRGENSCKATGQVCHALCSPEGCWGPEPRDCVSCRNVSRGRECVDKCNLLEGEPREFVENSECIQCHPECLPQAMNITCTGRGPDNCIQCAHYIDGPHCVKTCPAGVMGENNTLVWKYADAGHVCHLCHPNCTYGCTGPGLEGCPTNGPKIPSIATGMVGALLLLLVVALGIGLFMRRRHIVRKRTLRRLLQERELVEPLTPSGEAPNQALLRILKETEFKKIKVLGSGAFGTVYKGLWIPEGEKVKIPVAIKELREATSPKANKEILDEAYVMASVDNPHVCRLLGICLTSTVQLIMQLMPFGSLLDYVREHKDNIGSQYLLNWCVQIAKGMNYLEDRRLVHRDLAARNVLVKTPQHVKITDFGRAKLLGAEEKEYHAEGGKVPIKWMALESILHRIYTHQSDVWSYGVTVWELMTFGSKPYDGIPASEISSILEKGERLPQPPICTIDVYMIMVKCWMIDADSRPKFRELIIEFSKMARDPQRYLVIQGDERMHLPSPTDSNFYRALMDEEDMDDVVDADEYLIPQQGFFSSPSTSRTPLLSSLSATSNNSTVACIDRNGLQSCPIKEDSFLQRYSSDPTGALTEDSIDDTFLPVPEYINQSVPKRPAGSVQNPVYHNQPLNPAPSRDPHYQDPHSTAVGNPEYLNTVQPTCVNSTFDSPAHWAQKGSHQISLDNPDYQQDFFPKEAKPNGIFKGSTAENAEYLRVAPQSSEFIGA
# T7 sequence (P00533 with tags, fused parts or gaps DEL746-750 limits assumed): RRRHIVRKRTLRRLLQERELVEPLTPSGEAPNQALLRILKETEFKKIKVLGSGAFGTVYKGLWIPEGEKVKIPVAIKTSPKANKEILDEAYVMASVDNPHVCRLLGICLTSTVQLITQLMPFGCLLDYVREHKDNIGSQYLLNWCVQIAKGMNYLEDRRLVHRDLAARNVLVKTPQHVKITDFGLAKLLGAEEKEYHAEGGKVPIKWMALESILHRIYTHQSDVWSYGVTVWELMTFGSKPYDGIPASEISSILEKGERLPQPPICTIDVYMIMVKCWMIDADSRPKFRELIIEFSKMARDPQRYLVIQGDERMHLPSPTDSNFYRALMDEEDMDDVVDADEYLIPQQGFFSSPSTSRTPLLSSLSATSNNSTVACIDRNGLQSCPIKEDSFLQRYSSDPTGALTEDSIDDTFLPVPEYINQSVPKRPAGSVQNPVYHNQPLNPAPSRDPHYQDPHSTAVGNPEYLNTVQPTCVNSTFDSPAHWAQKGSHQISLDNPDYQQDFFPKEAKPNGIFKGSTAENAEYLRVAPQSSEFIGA
structure (smiles),measurement,setting,value
"CN(C)CCC1CN(c2ccc3nc4n(c3c2)C23CCC(CN(CCOc5c(cnn5C)-c5cc(cn(C)c5=O)C(=O)N4)C2)C3)C1 (single isomer, unassigned) [Example A95B]",IC50,[1],3.3 nM
same,IC50,[2],4.7 nM
same,IC50,[3],3.1 nM
same,IC50,[4],3.7 nM
same,GI50,"[5]; Homo sapiens, PC-9, 72 h, CellTiter-Glo, read-out: PC9 GI50",2460 nM
same,IC50,[6],7 nM
same,GI50,"[7]; Mus musculus, BaF3, 72 h, BaF3 cells, EGFR DEL19-C797S, CellTiter-Glo, read-out: DEL19-C797S/BaF3 GI50",95 nM
same,GI50,"[7]; Mus musculus, BaF3, 72 h, BaF3 cells, EGFR DEL19-T790-C797S, CellTiter-Glo, read-out: DEL19-T790-C797S/BaF3 GI50",228 nM
same,GI50,"[7]; Mus musculus, BaF3, 72 h, BaF3 cells, EGFR L858R, CellTiter-Glo, read-out: L858R/BaF3 GI50",357 nM
same,GI50,"[7]; Mus musculus, BaF3, 72 h, BaF3 cells, EGFR L858R-C797S, CellTiter-Glo, read-out: L858R-C797S/BaF3 GI50",436 nM
same,GI50,"[7]; Mus musculus, BaF3, 72 h, BaF3 cells, EGFR L858R-T790-C797S, CellTiter-Glo, read-out: L858R-T790-C797S/BaF3 GI50",574 nM
same,GI50,"[7]; Mus musculus, BaF3, 72 h, BaF3 cells, EGFR L858R-T790M, CellTiter-Glo, read-out: L858R-T790M/BaF3 GI50",1080 nM
same,GI50,"[7]; Mus musculus, BaF3, 72 h, EGFR DEL19-T790M, CellTiter-Glo, read-out: DEL19-T790M GI50",177 nM
same,IC50,[8],2.7 nM
same,pIC50,[9]; [12],8.77
same,IC50,[10],55 nM
same,IC50,[11],1.5 nM
"Cc1cc2cc(n1)-c1cnn(C)c1OCCN1CC3CCC(C3)(C1)n1c(nc3ccc(N4CC[C@@H](N(C)C)C4)cc31)NC2=O (single isomer, unassigned) [Example B42B]",pIC50,"[1]; EGFR[T790M/C797S/L858R], 1 h at room temperature, read-out: IC50 @T790M- C797S - L858R",8.24
same,pIC50,"[2]; EGFR (C797S L858R), 1 h at room temperature, read-out: IC50 @L858-C797S",7.82
same,pIC50,"[3]; EGFR Exon19Del/T790M, 1 h at room temperature, read-out: IC50 @Del19-T790M",8.00
same,pIC50,"[4]; EGFR L858R/T790M, 1 h at room temperature, read-out: IC50 @L858R-T790M",8.00
same,GI50,[5]; read-out: GI50 PC9,9 nM
same,pIC50,"[6]; 1 h at room temperature, read-out: IC50 @L858R",7.29
same,GI50,"[7]; BaF3 cells, EGFR DEL19 - C797S, read-out: GI50 DEL19 - C797S/BaF3",2 nM
same,GI50,"[7]; BaF3 cells, EGFR DEL19 - T790-C797S, read-out: GI50 DEL19 - T790-C797S/BaF3",2 nM
same,GI50,"[7]; BaF3 cells, EGFR L858R - C797S, read-out: GI50 L858R - C797S/BaF3",3 nM
same,GI50,"[7]; BaF3 cells, EGFR L858R - T790-C797S, read-out: GI50 L858R - T790-C797S/BaF3",2 nM
same,GI50,"[7]; BaF3 cells, EGFR L858R - T790M, read-out: GI50 L858R - T790M/BaF3",2 nM
same,GI50,"[7]; BaF3 cells, EGFR L858R, read-out: GI50 L858R/BaF3",5 nM
same,GI50,"[7]; EGFR DEL19 - T790M, read-out: GI50 DEL19 - T790M",2 nM
same,pIC50,"[8]; EGFR[T790M/C797S/d746-750], 1 mM ATP, 1 h at room temperature, read-out: IC50 @T790M - C797S - Del19",8.20
same,pIC50,"[9]; EGFR Exon19Del, 1 mM ATP, 1 h at room temperature",7.89
same,pIC50,"[10]; EGFR wild type, 1 h at room temperature, read-out: IC50 @WT",6.13
same,pIC50,"[11]; EGFR (d746-750 C797S), 1 h at room temperature, read-out: IC50 @Del19-C797S",8.15
"CN1CCC2(CCN(c3ccc4nc5n(c4c3)C34CCC(CN(CCOc6c(cnn6C)-c6cc(cn(C)c6=O)C(=O)N5)C3)C4)CC2)C1 (single isomer, unassigned) [Example A82A]",IC50,[1],> 5000 nM
same,IC50,[2],2140 nM
same,IC50,[3],1410 nM
same,IC50,[4],> 5000 nM
same,GI50,"[5]; CellTiter-Glo, read-out: PC9 GI50",92 nM
same,IC50,[6],1210 nM
same,GI50,"[7]; BaF3 cells, EGFR DEL19-C797S, CellTiter-Glo, read-out: DEL19-C797S/BaF3 GI50",96 nM
same,GI50,"[7]; BaF3 cells, EGFR DEL19-T790-C797S, CellTiter-Glo, read-out: DEL19-T790-C797S/BaF3 GI50",186 nM
same,GI50,"[7]; BaF3 cells, EGFR L858R, CellTiter-Glo, read-out: L858R/BaF3 GI50",108 nM
same,GI50,"[7]; BaF3 cells, EGFR L858R-C797S, CellTiter-Glo, read-out: L858R-C797S/BaF3 GI50",76 nM
same,GI50,"[7]; BaF3 cells, EGFR L858R-T790-C797S, CellTiter-Glo, read-out: L858R-T790-C797S/BaF3 GI50",129 nM
same,GI50,"[7]; BaF3 cells, EGFR L858R-T790M, CellTiter-Glo, read-out: L858R-T790M/BaF3 GI50",137 nM
same,GI50,"[7]; EGFR DEL19-T790M, CellTiter-Glo, read-out: DEL19-T790M GI50",200 nM
same,IC50,[8],629 nM
same,pIC50,[9]; [12],6.51
same,IC50,[10],341 nM
same,IC50,[11],226 nM
